# Patent US20190127366A1 (LifeSci Pharmaceuticals, Inc., priority 2015, published 2019)
# Molecular target: T1, human complement factor D (Homo sapiens, UniProt P00746)
# T1 construct: purchased R&D Systems 1824-SE
# Experiment: In vitro enzyme inhibition (Z-Lys-SBzl/DTNB absorbance assay)
# Type: biochemical
# Settings: Complement Factor D (R&D Systems), substrate Z-Lys-SBzl, A405 nm; read-out: CFD IC50
# Description: The ability of the compounds disclosed herein to inhibit human complement factor D inhibitory activity was quantified according to the 12-step protocol provided below. • 1. Prepare assay buffer: 50 mM Tris/HCl, pH 7.5, 1 M NaCl. • 2. Dilute 10 mM Complement Factor D inhibitor Nafamostat Mesilate (Selleckchem, Catalog #S1386) solution from 10000 μM to 9.77 μM in 100% DMSO, 8 concentrations. Then dilute the serial concentrations of Nafamostat Mesilate 20-fold in assay buffer. • 3. Add 10 μl diluted Nafamostat Mesilate duplicated into each of the inhibitor control well of a 96-well plate (Corning, Catalog #3599). Final concentrations were 50 μM, 25 μM, 12.5 μM, 6.25 μM, 3.125 μM, 0.781 μM, 0.195 μM and 0.049 μM. 0.5% DMSO was in each well finally. • 4. Dilute 20 mM test compounds from 10000 μM to […] in 100% DMSO, 6-fold dilution, 8 concentrations. Then dilute the serial concentrations of test compounds 20-fold in assay buffer. • 5. Add 10 μl diluted test compounds duplicated into the 96-well plate. Final concentrations were 50 μM, 8.33 μM, 1.39 μM, 0.23 μM, 0.0386 μM, 0.0064 μM, 0.0011 μM and 0.0002 μM. 0.5% DMSO was in each well finally. • 6. Dilute 20 mM substrate Z-Lys-SBzl (Bachem, Cat #M-1300) to 200 μM in assay buffer with 200 μM DTNB(Sigma, Catalog #D8130). • 7. Dilute 738 ng/μL Complement Factor D (R&D Systems, Catalog #1824-SE) to 6.25 ng/μL in assay buffer. Add 40 μl diluted Complement Factor D in the 96-well plate. • 8. Positive control well contains Complement Factor D without test compound. Negative control well contains neither Complement Factor D nor test compound. Using assay buffer, bring the total volume of all controls to 50 μl. • 9. Pre-incubate the plate for 5 min at room temperature. • 10. Add 50 μl of diluted substrate/DTNB mixture into each well. Mix the reagents completely by shaking the plate gently for 30 sec. • 11. For kinetic reading: Immediately start measuring absorbance (A405 nm) continuously and record data every 30sec for 60 min. • 12. Data analysis • Inhibition activity of compound was evaluated by IC50. IC50 was calculated according the dose-response curve of compound fitted using GraphPadPrism with “log(inhibitor)-response (variable slope)” equation. • % inhibition was calculated by using following equation:
# [formula] • Mean(NC): The average value of the negative control wells' A405 nm values. • Mean(PC): The average value of the positive control wells' A405 nm values.
# The ability of the compounds in Table 2 to inhibit human complement factor D inhibitory activity was determined.
# T1 sequence (P00746 26-253): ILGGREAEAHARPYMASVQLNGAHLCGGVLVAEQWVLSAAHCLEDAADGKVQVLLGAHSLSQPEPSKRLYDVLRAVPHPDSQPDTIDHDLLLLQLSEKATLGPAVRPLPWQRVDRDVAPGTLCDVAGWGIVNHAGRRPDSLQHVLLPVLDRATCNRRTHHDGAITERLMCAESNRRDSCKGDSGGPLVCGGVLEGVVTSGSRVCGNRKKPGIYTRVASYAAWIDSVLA
row,SMILES,IC50 [nM]
1,"NC(=O)c1nn(CC(=O)N2[C@@H]3CC[C@@H](C3)[C@H]2C(=O)Nc2cccc(Cl)n2)c2cnccc12 [Example 2, 1-(2-((1R,3S,4S)-3-((6-chloropyridin-2-yl)carbamoyl)-2-azabicyclo[2.2.1]heptan-2-yl)-2-oxoethyl)-1H-pyrazolo[3,4-c]pyridine-3-carboxamide]",100 to 1000
2,"NC(=O)c1nn(CC(=O)N2[C@@H]3CC[C@@H](C3)[C@H]2C(=O)Nc2cccc(C3CC3)n2)c2ccccc12 [Example 3, 1-(2-((1R,3S,4S)-3-((6-cyclopropylpyridin-2-yl)carbamoyl)-2-azabicyclo[2.2.1]heptan-2-yl)-2-oxoethyl)-1H-indazole-3-carboxamide]",1000 to 10000
3,"NC(=O)c1nn(CC(=O)N2[C@@H]3CC[C@@H](C3)[C@H]2C(=O)Nc2cccc(C3CC3)n2)c2cnccc12 [Example 4, 1-(2-((1R,3S,4S)-3-((6-cyclopropylpyridin-2-yl)carbamoyl)-2-azabicyclo[2.2.1]heptan-2-yl)-2-oxoethyl)-1H-pyrazolo[3,4-c]pyridine-3-carboxamide]",1000 to 10000
4,"NC(=O)c1nn(CC(=O)N2[C@@H]3CC[C@@H](C3)[C@H]2C(=O)Nc2cccc(C3CC3)n2)c2cc(C3CC3)ccc12 [Example 5, 6-cyclopropyl-1-(2-((1R,3S,4S)-3-((6-cyclopropylpyridin-2-yl)carbamoyl)-2-azabicyclo[2.2.1]heptan-2-yl)-2-oxoethyl)-1H-indazole-3-carboxamide]",1000 to 10000
5,"Cc1cccc(NC(=O)[C@@H]2[C@H]3CC[C@H](C3)N2C(=O)Cn2nc(C(N)=O)c3ccccc32)n1 [Example 6, 1-(2-((1R,3S,4S)-3-((6-methylpyridin-2-yl)carbamoyl)-2-azabicyclo[2.2.1]heptan-2-yl)-2-oxoethyl)-1H-indazole-3-carboxamide]",1000 to 10000
6,"Cc1cccc(NC(=O)[C@@H]2[C@H]3CC[C@H](C3)N2C(=O)Cn2nc(C(N)=O)c3ccncc32)n1 [Example 7, 1-(2-((1R,3S,4S)-3-((6-methylpyridin-2-yl)carbamoyl)-2-azabicyclo[2.2.1]heptan-2-yl)-2-oxoethyl)-1H-pyrazolo[3,4-c]pyridine-3-carboxamide]",1000 to 10000
7,"NC(=O)c1nn(CC(=O)N2[C@@H]3CC[C@@H](C3)[C@H]2C(=O)Nc2cccc(C(F)(F)F)n2)c2ccccc12 [Example 8, 1-(2-oxo-2-((1R,3S,4S)-3-((6-(trifluoromethyl)pyridin-2-yl)carbamoyl)-2-azabicyclo[2.2.1]heptan-2-yl)ethyl)-1H-indazole-3-carboxamide]",1000 to 10000
8,"NC(=O)c1nn(CC(=O)N2[C@@H]3CC[C@@H](C3)[C@H]2C(=O)Nc2cccc(C(F)(F)F)n2)c2cnccc12 [Example 9, 1-(2-oxo-2-((1R,3S,4S)-3-((6-(trifluoromethyl)pyridin-2-yl)carbamoyl)-2-azabicyclo[2.2.1]heptan-2-yl)ethyl)-1H-pyrazolo[3,4-c]pyridine-3-carboxamide]",100 to 1000
9,"NC(=O)c1nn(CC(=O)N2[C@@H]3CCC(C3)[C@H]2C(=O)Nc2cccc(Cl)n2)c2ccc(Cl)cc12 [Example 12, 5-chloro-1-(2-((1R,3S)-3-((6-chloropyridin-2-yl)carbamoyl)-2-azabicyclo[2.2.1]heptan-2-yl)-2-oxoethyl)-1H-indazole-3-carboxamide]",1000 to 10000
10,"NC(=O)c1nn(CC(=O)N2C3CCC(C3)[C@H]2C(=O)Nc2cccc(C(F)(F)F)n2)c2ccccc12 (stereo partly drawn) [Example 13, 1-(2-oxo-2-((3S)-3-((6-(trifluoromethyl)pyridin-2-yl)carbamoyl)-2-azabicyclo[2.2.1]heptan-2-yl)ethyl)-1H-indazole-3-carboxamide]",1000 to 10000
11,"NC(=O)c1nn(CC(=O)N2C3CCC(C3)[C@H]2C(=O)Nc2cccc(C(F)(F)F)n2)c2ccc(C3CC3)cc12 (stereo partly drawn) [Example 14, 5-cyclopropyl-1-(2-oxo-2-((3S)-3-((6-(trifluoromethyl)pyridin-2-yl)carbamoyl)-2-azabicyclo[2.2.1]heptan-2-yl)ethyl)-1H-indazole-3-carboxamide]",1000 to 10000
12,"NC(=O)c1nn(CC(=O)N2[C@H]3CC[C@H](C3)[C@H]2C(=O)Nc2cccc(Cl)n2)c2ccc(Cl)cc12 [Example 16, 5-chloro-1-(2-((1S,3S,4R)-3-((6-chloropyridin-2-yl)carbamoyl)-2-azabicyclo[2.2.1]heptan-2-yl)-2-oxoethyl)-1H-indazole-3-carboxamide]",1000 to 10000
13,"NC(=O)c1nn(CC(=O)N2[C@H]3CC[C@H](C3)[C@@H]2C(=O)Nc2cccc(C(F)(F)F)n2)c2ccccc12 [Example 17, 1-(2-oxo-2-((1S,3R,4R)-3-((6-(trifluoromethyl)pyridin-2-yl)carbamoyl)-2-azabicyclo[2.2.1]heptan-2-yl)ethyl)-1H-indazole-3-carboxamide]",1000 to 10000
14,"NC(=O)c1nn(CC(=O)N2[C@H]3CC[C@H](C3)[C@@H]2C(=O)Nc2cccc(Cl)n2)c2ccccc12 [Example 19, 1-(2-((1S,3R,4R)-3-((6-chloropyridin-2-yl)carbamoyl)-2-azabicyclo[2.2.1]heptan-2-yl)-2-oxoethyl)-1H-indazole-3-carboxamide]",100 to 1000

# The next lines start with the values.
row,IC50 [nM],SMILES
1,100 to 1000,"CCOC(=O)[C@@H]1C[C@@H](C(=O)NCc2cccc(Cl)c2F)N1C(=O)Cn1nc(C(N)=O)c2ccccc21 (relative stereo) [Example 194, trans-ethyl 1-(2-(3-carbamoyl-1H-indazol-1-yl)acetyl)-4-((3-chloro-2-fluorobenzyl)carbamoyl)azetidine-2-carboxylate]"
2,1000 to 10000,"NC(=O)c1nn(CC(=O)N2[C@H](C(=O)O)C[C@H]2C(=O)NCc2cccc(Cl)c2F)c2ccccc12 (relative stereo) [Example 195, trans-1-(2-(3-carbamoyl-1H-indazol-1-yl)acetyl)-4-((3-chloro-2-fluorobenzyl)carbamoyl)azetidine-2-carboxylic acid]"
3,1000 to 10000,"NC(=O)c1nn(CC(=O)N2[C@H](C(N)=O)C[C@H]2C(=O)NCc2cccc(Cl)c2F)c2ccccc12 (relative stereo) [Example 196, trans-1-(2-(3-carbamoyl-1H-indazol-1-yl)acetyl)-N2-(3-chloro-2-fluorobenzyl)azetidine-2,4-dicarboxamide]"
4,100 to 1000,"NC(=O)c1nn(CC(=O)N2CCCC[C@H]2C(=O)Nc2cccc(Br)n2)c2ccccc12 [Example 20, (S)-1-(2-(2-((6-bromopyridin-2-yl)carbamoyl)piperidin-1-yl)-2-oxoethyl)-1H-indazole-3-carboxamide]"
5,1000 to 10000,"NC(=O)c1nn(CC(=O)N2CCOC[C@H]2C(=O)Nc2cccc(Cl)n2)c2ccccc12 [Example 22, (S)-4-(2-(3-carbamoyl-1H-indazol-1-yl)acetyl)-N-(6-chloropyridin-2-yl)morpholine-3-carboxamide]"
6,1000 to 10000,"NC(=O)c1nn(CC(=O)N2CCOC[C@H]2C(=O)Nc2cccc(C(F)(F)F)n2)c2ccccc12 [Example 23, (S)-4-(2-(3-carbamoyl-1H-indazol-1-yl)acetyl)-N-(6-(trifluoromethyl)pyridin-2-yl)morpholine-3-carboxamide]"
7,1000 to 10000,"NC(=O)c1nn(CC(=O)N2CCOC[C@H]2C(=O)Nc2cccc(Br)n2)c2ccccc12 [Example 24, (S)-N-(6-bromopyridin-2-yl)-4-(2-(3-carbamoyl-1H-indazol-1-yl)acetyl)morpholine-3-carboxamide]"
8,1000 to 10000,"CC(C)(C)OC(=O)N1CCN(C(=O)Cn2nc(C(N)=O)c3ccccc32)[C@H](C(=O)Nc2cccc(Cl)n2)C1 [Example 25, (S)-tert-butyl 4-(2-(3-carbamoyl-1H-indazol-1-yl)acetyl)-3-((6-chloropyridin-2-yl)carbamoyl)piperazine-1-carboxylate]"
9,> 10000,"NC(=O)c1nn(CC(=O)N2CCNC[C@H]2C(=O)Nc2cccc(Cl)n2)c2ccccc12 [Example 26, (S)-1-(2-(2-((6-chloropyridin-2-yl)carbamoyl)piperazin-1-yl)-2-oxoethyl)-1H-indazole-3-carboxamide]"
10,1000 to 10000,"CC(=O)N1CCN(C(=O)Cn2nc(C(N)=O)c3ccccc32)[C@H](C(=O)Nc2cccc(Cl)n2)C1 [Example 27, (S)-1-(2-(4-acetyl-2-((6-chloropyridin-2-yl)carbamoyl)piperazin-1-yl)-2-oxoethyl)-1H-indazole-3-carboxamide]"
